Data reported in patent publication US6818646B2 (priority 2000, dated 2004).
Where a name gives a salt, the structure may show the parent alone.

molecular target: T1, PDEV (Homo sapiens, UniProt O76074); test: PDE assay: inhibition of PDEV isolated from human tissue; assay type: biochemical; conditions: PDEV inhibitory activity
T1 construct: PDEV was isolated from rabbit and human tissues according to the protocol described by Boolell et al; from tissue; host or cells: human tissue, homogenate supernatant fractionated on Mono Q
Procedure: (§1) Briefly, rabbit or human tissues were homogenized in an ice-cold buffer solution containing 20 mM HEPES (pH 7.2), 0.25M sucrose, 1 mM EDTA, and 1 mM phenylmethylsulphonyl fluoride (PMSF). The homogenates were centrifuged at 100,000 g for 60 minutes at 4° C. The supernatant was filtered through […] filter and loaded on a Pharmacia Mono Q anion exchange column (1 ml bed volume) that was equilibrated with 20 mM HEPES, 1 mM EDTA and 0.5 mM PMSF. After washing out unbound proteins, the enzymes were eluted with a linear gradient of 100-600 mM NaCl in the same buffer (35 to 50 ml total, depending on the tissue. Enzymes from the skeletal muscle, corpus cavernosum, retina, heart and platelet were eluted with 35, 40, 45, 50, and 50 ml respectively.) The column was run at a flow rate of 1 ml/min and 1 ml fractions were collected. The fractions comprising various PDE activities were pooled separately and used in later studies.
(§2) The assays were adapted to a 96-well format. The enzyme was assayed in 5 mM MgCl2, 15 mM Tris HCl (pH 7.4), 0.5 mg/ml bovine serum albumin, 1 μM cGMP or cAMP, 0.1 μCi [^3H]-cGMP or [^3H]-cAMP, and 2-10 μl of column elution. The total volume of the assay was 100 μl. The reaction mixture was incubated at 30° C. for 30 minutes. The reaction was stopped by boiling for 1 minute and then cooled down on ice. The resulting [^3H]5′-mononucleotides were further converted to uncharged [^3H]-nucleosides by adding 25 μl 1 mg/ml snake venom (Ophiophagus hannah) and incubating at 30° C. for 10 minute. The reaction was stopped by the addition of 1 ml Bio-Rad AG1-X2 resin slurry (1:3). All the charged nucleotides were bound by the resin and only uncharged [^3H]-nucleosides remained in the supernatant after centrifuging. An aliquot of 200 μl was taken and counted by liquid scintillation. PDE activity was expressed as pmol cyclic nucleotide hydrolyzed/min/ml of enzyme preparation.
(§3) Inhibitor studies were carried out in assay buffer with a final concentration of 10% DMSO.
(§4) The % inhibition of the maximum substrate conversion (by the enzyme in the absence of inhibitor) was calculated for each test compound concentration. Using GraphPad Prism's nonlinear regression analysis (sigmoidal dose response), the % inhibition vs log of the test compound concentration was plotted to determine the IC50. Under conditions where substrate concentration <<Km of the enzyme (Km=substrate concentration at which half of the maximal velocity of the enzyme is achieved), Ki is equivalent to the IC50 value.
(§5) Unless otherwise noted, PDEV inhibitory activities were measured using human tissue. The abbreviation “stereo” refers to the stereogenic configuration, the abbreviation “Rac” shall denote a racemic mixture.

Point of comparison: `O=c1c2c([nH]c3ccccc13)C(c1ccc3c(c1)CCO3)N(c1ncc(-c3ccccn3)cn1)C2` (stereo not drawn) [Compound 61], IC50 1.03 nM. Against it:
- O=Cc1ccc(-c2ccc(C(=O)N3Cc4c([nH]c5ccccc5c4=O)C3c3ccc4c(c3)OCO4)o2)cc1 (stereo not drawn) [Compound 23, 1,2,3,4-Tetrahydro-3-(3,4-methylenedioxyphenyl)-2-[5-(4-formylphenyl)-furoyl]-9H-pyrrolo[3,4-b]-quinolin-9-one] — 1.7-fold higher, 1.76 nM
- COC(=O)c1ccc(-c2ccc(C(=O)N3Cc4c([nH]c5ccccc5c4=O)C3c3ccc4c(c3)OCO4)o2)cc1 (stereo not drawn) [Compound 24, 1,2,3,4-Tetrahydro-3-(3,4-methylenedioxyphenyl)-2-[5-(4-methoxycarbonylphenyl)-furoyl]-9H-pyrrolo[3.4-b]-quinolin-9-one] — within 1.5-fold, 1.21 nM
- COc1ccc(-c2cnc(N3Cc4c([nH]c5ccccc5c4=O)C3c3ccc4c(c3)CCO4)nc2)cc1 (stereo not drawn) [Compound 39, 1,2,3,4-Tetrahydro-2-[5-(4-methoxyphenyl)-pyrimidin-2-yl]-3-(2,3-dihydrobenzofuranyl)-9H-pyrrolo-[3,4-b]quinolin-9-one] — 2.2-fold lower, 0.47 nM
- CN1CCN(C(=O)c2ccc(-c3ccc(C(=O)N4Cc5c([nH]c6ccccc6c5=O)C4c4ccc5c(c4)OCO5)o3)cc2)CC1 (stereo not drawn) [Compound 44, 1,2,3,4-Tetrahydro-3-(3,4-methylenedioxyphenyl)-2-(5-(4-(1-(4-methyl)piperazinylcarbonyl)-phenyl)-furoyl)-9H-pyrrolo[3,4-b]quinolin-9-one] — 1.5-fold higher, 1.58 nM
- CN1CCN(C(=O)c2ccc(-c3ccc(C(=O)N4Cc5c([nH]c6ccccc6c5=O)[C@H]4c4ccc5c(c4)OCO5)o3)cc2)CC1 [Compound 69, (R)-1,2,3,4-Tetrahydro-3-(3,4-methylenedioxyphenyl)-2-(5-(4-(1-(4-methyl)-piperazinylcarbonyl)-phenyl)-furoyl)-9H-pyrrolo[3,4-b]quinolin-9-one] — 3.2-fold lower, 0.32 nM
- Oc1c2c(nc3ccccc13)[C@@H](c1ccc3c(c1)CCO3)N(c1ncc(-c3ccccn3)cn1)C2 [Compound 76] — 4.5-fold lower, 0.23 nM
- O=c1c2c([nH]c3ccccc13)[C@@H](c1ccc3c(c1)CCO3)N(Cc1ccccc1)C2 [Compound 77, (R)-1,2,3,4-Tetrahydro-2-benzyl-3-(2,3-dihydrobenzofuran-5-yl)-9H-pyrrolo-[3,4-b]quinolin-9-one] — 61-fold higher, 62.7 nM

molecular target: T1, PDEV; test: In vitro determination of Ki for phosphodiesterase inhibitors; assay type: biochemical; conditions: human tissue; given as 'Ki ='
Procedure: The assays were adapted to a 96-well format. Phosphodiesterase was assayed in 5 mM MgCl2, 15 mM Tris HCl (pH 7.4), 0.5 mg/ml bovine serum albumin, 30 nM ^3H-cGMP and test compound at various concentrations. The amount of enzyme used for each reaction was such that less than 15% of the initial substrate was converted during the assay period. For all measurements, the test compound was dissolved and diluted in 100% DMSO (2% DMSO in assay). The total volume of the assay was 100 μl. The reaction mixture was incubated at 30° C. for 90 minutes. The reaction was stopped by boiling for 1 minute and then immediately cooled by transfer to an ice bath. To each well was then added 25 μl 1 mg/ml snake venom (Ophiophagus hannah) and the reaction mixture incubating at 30° C. for 10 minute. The reaction was stopped by the addition of 1 ml Bio-Rad AG1-X2 resin slurry (1:3). An aliquot of 200 μl was taken and counted by liquid scintillation.
as §4, §5

Point of comparison: `O=c1c2c([nH]c3ccccc13)C(c1ccc3c(c1)CCO3)N(c1ccccn1)C2` (racemic) [Compound 129, 3-(2,3-Dihydro-benzofuran-5-yl)-2-pyridin-2-yl-1,2,3,4-tetrahydro-pyrrolo[3,4-b]quinolin-9-one], Ki 0.65 nM. Against it:
- Oc1c2c(nc3ccccc13)C(c1ccc3occc3c1)N(c1ncc(-c3ccccn3)cn1)C2 (racemic) [Compound 126, 3-Benzofuran-5-yl-2-(5-pyridin-2-yl-pyrimidin-2-yl)-1,2,3,4-tetrahydro-pyrrolo[3,4-b]quinolin-9-one] — 4.7-fold lower, 0.138 nM
- Cc1ncc(-c2cnc(N3Cc4c(nc5ccccc5c4O)C3c3ccc4c(c3)CCO4)nc2)n1Cc1ccccc1 (racemic) [Compound 127, 2-[5-(3-Benzyl-2-methyl-3H-imidazol-4-yl)-pyrimidin-2-yl]-3-(2,3-dihydro-benzofuran-5-yl)-1,2,3,4-tetrahydro-pyrrolo[3,4-b]quinolin-9-one] — 4.6-fold lower, 0.14 nM
- Oc1c2c(nc3ccccc13)C(c1ccc3c(c1)OCO3)N(c1ccc(-n3ccnc3)cc1)C2 (racemic) [Compound 133, 3-Benzo[1,3]dioxol-5-yl-2-(4-imidazol-1-yl-phenyl)-1,2,3,4-tetrahydro-pyrrolo[3,4-b]quinolin-9-one] — 2.7-fold higher, 1.75 nM
- Oc1c2c(nc3ccccc13)C(c1ccc3c(c1)CCO3)N(c1ccc(-c3ccccn3)cn1)C2 (racemic) [Compound 134, 2-[2,3′]Bipyridinyl-6′-yl-3-(2,3-dihydro-benzofuran-5-yl)-1,2,3,4-tetrahydro-pyrrolo[3,4-b]quinolin-9-one] — 1.7-fold higher, 1.1 nM
- O=c1c2c([nH]c3ccccc13)C(c1ccc3c(c1)CCO3)N(c1ncc(-c3cccc[n+]3[O-])cn1)C2 (stereo not drawn) [Compound 125, 3-(2,3-Dihydro-benzofuran-5-yl)-2-[5-(1-oxy-pyridin-2-yl)-pyrimidin-2-yl]-1,2,3,4-tetrahydro-pyrrolo[3,4-b]quinolin-9-one] — 4.5-fold lower, 0.144 nM
- Cc1ncc(-c2cnc(N3Cc4c([nH]c5ccccc5c4=O)C3c3ccc4c(c3)CCO4)nc2)n1C (stereo not drawn) [Compound 128, 3-(2,3-Dihydro-benzofuran-5-yl)-2-[5-(2,3-dimethyl-3H-imidazol-4-yl)-pyrimidin-2-yl]-1,2,3,4-tetrahydro-pyrrolo[3,4-β]quinolin-9-one] — 2.2-fold lower, 0.3 nM

molecular target: PDEV (Oryctolagus cuniculus, UniProt G1SX67); test: PDE assay: inhibition of PDEV isolated from rabbit tissue; assay type: biochemical; conditions: PDEV inhibitory activity, rabbit tissue (footnote a)
Procedure: as §1, §2, §3, §4, §5

Point of comparison: `O=C(c1cc2ccc(OCCN3CCOCC3)cc2o1)N1Cc2c([nH]c3ccccc3c2=O)C1c1ccc2c(c1)OCO2` (racemic) [Compound 49, hydrochloride salt], IC50 1.13 nM. Against it:
- CC(C)(C)OC(=O)N1Cc2c([nH]c3ccccc3c2=O)C1c1ccc2c(c1)OCO2 (racemic) [Compound 3, 1,2,3,4-Tetrahydro-2-(tert-butoxycarbonyl)-3-(3,4-methylenedioxyphenyl)-9H-pyrrolo-[3,4-b]quinolin-9-one] — 300-fold higher, 340 nM
- O=C(OCc1ccccc1)N1Cc2c(nc3ccccc3c2O)C1c1ccc2c(c1)OCO2 (racemic) [Compound 27, 1,2,3,4-Tetrahydro-2-(benzyloxycarbonyl)-3-(3,4-methylenedioxyphenyl)-9H-pyrrolo-[3,4-b]quinolin-9-one] — 3-fold higher, 3.4 nM
- O=C(c1ccc(Br)o1)N1Cc2c(nc3ccccc3c2O)C1c1ccc2c(c1)OCO2 (racemic) [Compound 30, 1,2,3,4-Tetrahydro-3-(3,4-methylenedioxyphenyl)-2-(5-(2-bromo)-furoyl)-9H-pyrrolo[3,4-b]quinolin-9-one] — 4.6-fold higher, 5.2 nM
- O=C(OCc1ccncc1)N1Cc2c([nH]c3ccccc3c2=O)C1c1ccc2c(c1)CCO2 (racemic) [Compound 53, 1,2,3,4-Tetrahydro-2-[(4-pyridinyl)methyloxycarbonyl]-3-(2,3-dihydrobenzofuran-5-yl)-9H-pyrrolo-[3,4-b]quinolin-9-one] — 4.7-fold higher, 5.34 nM
- COC(=O)c1ccc(/C=C/C(=O)N2Cc3c(n(C)c4ccccc4c3=O)C2c2ccc3c(c2)OCO3)cc1 (racemic) [Compound 63, (E)-4-[3-Oxo-3-[1,2,3,4-tetrahydro-3-(3,4-methylenedioxyphenyl)-4-methyl-9H-pyrrolo-[3,4-b]quinolin-9-one-2-yl]-1-propenyl]benzoic acid, methyl ester] — 450-fold higher, 511 nM
- COc1ccc(-c2cnc(N3Cc4c([nH]c5ccccc5c4=O)[C@@H]3c3ccc4c(c3)OCO4)nc2)cc1OC [Compound 35, (S)-1,2,3,4-Tetrahydro-2-[5-(3,4-dimethoxyphenyl)-pyrimidin-2-yl]-3-(3,4-methylenedioxyphenyl)-9H-pyrrolo-[3,4-b]quinolin-9-one] — within 1.5-fold, 1.42 nM
- O=c1c2c([nH]c3ccccc13)[C@@H](c1ccc3c(c1)OCO3)N(c1ccc(-c3cccc(C(F)(F)F)c3)o1)C2 [Compound 50, (R)-1,2,3,4-Tetrahydro-3-(3,4-methylenedioxyphenyl)-2-[5-(3-trifluoromethylphenyl)furo-2-yl]-9H-pyrrolo-[3,4-b]quinolin-9-one] — 1.9-fold lower, 0.61 nM
- (E)-4-[3-Oxo-3-[1,2,3,4-tetrahydro-3-(3,4-methylenedioxyphenyl)-9-methoxy-9H-pyrrolo-[3,4-b]quinolin-2-yl]-1-propenyl]benzoic acid, methyl ester [Compound 64] — 100-fold higher, 113 nM
